According to PubChem BioAssay AID248 (DTP/NCI, 2004):
Several values for one entry are separate records, joined by “and”; a condition that tells them apart may be missing. Identical values can stand only once. Toxic doses and inconclusive results are not listed.

System: L1210 leukemia ip in BDF1 mice, survival T/C
Assay: NCI In Vivo Anticancer Drug Screen. Data for tumor model L1210 Leukemia (intraperitoneal) in B6D2F1 (BDF1) mice
Details: endpoint: mean survival time, higher = longer survival
Method in brief: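 Ratio derived from survival: compound-dosed mice over vehicle-dosed mice, all bearing a transplantable tumor.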

[1] = dose: 100.0 mg/kg/injection, schedule: Q01DX001 (ip), vehicle: carboxymethylcellulose (CMC)
[2] = dose: 200.0 mg/kg/injection, schedule: Q01DX001 (ip), vehicle: carboxymethylcellulose (CMC)
[3] = dose: 400.0 mg/kg/injection, schedule: Q01DX001 (ip), vehicle: carboxymethylcellulose (CMC)
[4] = dose: 100.0 mg/kg/injection, schedule: Q04DX003 (ip), vehicle: saline
[5] = dose: 200.0 mg/kg/injection, schedule: Q04DX003 (ip), vehicle: saline
[6] = dose: 400.0 mg/kg/injection, schedule: Q04DX003 (ip), vehicle: saline
[7] = dose: 100.0 mg/kg/injection, schedule: Q04DX003 (ip), vehicle: Klucel (hydroxypropylcellulose) (HPC)
[8] = dose: 200.0 mg/kg/injection, schedule: Q04DX003 (ip), vehicle: Klucel (hydroxypropylcellulose) (HPC)
[9] = dose: 400.0 mg/kg/injection, schedule: Q04DX003 (ip), vehicle: Klucel (hydroxypropylcellulose) (HPC)
[10] = dose: 50.0 mg/kg/injection, schedule: Q01DX009 (ip), vehicle: Klucel (hydroxypropylcellulose) (HPC)
[11] = dose: 100.0 mg/kg/injection, schedule: Q01DX009 (ip), vehicle: Klucel (hydroxypropylcellulose) (HPC)
[12] = dose: 200.0 mg/kg/injection, schedule: Q01DX009 (ip), vehicle: Klucel (hydroxypropylcellulose) (HPC)
[13] = dose: 50.0 mg/kg/injection, schedule: Q01DX001 (ip), vehicle: carboxymethylcellulose (CMC)

CC1CN1P(=S)(N1CC1C)N1CC1C (centres undefined)
T/C (dose: 2.5 mg/kg/injection, schedule: Q01DX Z (ip), vehicle: saline): 92 % of control | T/C (dose: 3.75 mg/kg/injection, schedule: Q01DX015 (ip), vehicle: saline): 104 % of control | T/C (dose: 5.0 mg/kg/injection, schedule: Q01DX Z (ip), vehicle: saline): 95 % of control | T/C (dose: 6.0 mg/kg/injection, schedule: Q01DX001 (ip), vehicle: saline): 100 % of control | T/C (dose: 7.5 mg/kg/injection, schedule: Q01DX015 (ip), vehicle: saline): 110 % of control | T/C (dose: 10.0 mg/kg/injection, schedule: Q01DX Z (ip), vehicle: saline): 98 % of control | T/C (dose: 12.0 mg/kg/injection, schedule: Q01DX001 (ip), vehicle: saline): 113 % of control | T/C (dose: 12.0 mg/kg/injection, schedule: Q01DX015 (ip), vehicle: saline): 107 % of control | T/C (dose: 20.0 mg/kg/injection, schedule: Q01DX Z (ip), vehicle: saline): 101 % of control | T/C (dose: 24.0 mg/kg/injection, schedule: Q01DX001 (ip), vehicle: saline): 104 % of control | T/C (dose: 48.0 mg/kg/injection, schedule: Q01DX001 (ip), vehicle: saline): 108 % of control | T/C (dose: 48.0 mg/kg/injection, schedule: Q01DX015 (ip), vehicle: saline): 164 % of control | T/C (dose: 50.0 mg/kg/injection, schedule: Q01DX001 (ip), vehicle: saline): 108 % of control | T/C (dose: 60.0 mg/kg/injection, schedule: Q01DX015 (ip), vehicle: saline): 102 % of control | T/C (dose: 72.0 mg/kg/injection, schedule: Q01DX Z (ip), vehicle: saline): 117 % of control | T/C (dose: 96.0 mg/kg/injection, schedule: Q01DX015 (ip), vehicle: saline): 97 % of control | T/C (dose: 96.0 mg/kg/injection, schedule: Q01DX Z (ip), vehicle: saline): 90 % of control | T/C (dose: 144.0 mg/kg/injection, schedule: Q01DX001 (ip), vehicle: saline): 152 % of control and 153 % of control | T/C (dose: 200.0 mg/kg/injection, schedule: Q01DX001 (ip), vehicle: saline): 112 % of control | T/C (dose: 216.0 mg/kg/injection, schedule: Q01DX001 (ip), vehicle: saline): 107 % of control

CCC1(CC)COC(=O)NC1=O
T/C (dose: 1.56 mg/kg/injection, schedule: Q01DX009 (ip), vehicle: saline): 105 % of control | T/C (dose: 3.12 mg/kg/injection, schedule: Q01DX009 (ip), vehicle: saline): 116 % of control | T/C (dose: 6.25 mg/kg/injection, schedule: Q01DX009 (ip), vehicle: saline): 103 % of control | T/C (dose: 6.25 mg/kg/injection, schedule: Q04DX003 (ip), vehicle: saline): 101 % of control | T/C (dose: 12.5 mg/kg/injection, schedule: Q01DX009 (ip), vehicle: saline): 103 % of control | T/C (dose: 12.5 mg/kg/injection, schedule: Q04DX003 (ip), vehicle: saline): 101 % of control | T/C (dose: 25.0 mg/kg/injection, schedule: Q01DX009 (ip), vehicle: saline): 97 % of control | T/C (dose: 25.0 mg/kg/injection, schedule: Q04DX003 (ip), vehicle: saline): 87 % of control

O=C(Nc1ccc2c(c1)C(S)c1ccccc1-2)C(F)(F)F (centres undefined)
T/C [1]: 96 % of control | T/C [2]: 101 % of control | T/C [3]: 95 % of control

CC(C)=CCN(CC=C(C)C)CCC(CC=C(C)C)(C(N)=O)c1cccc2ccccc12 (centres undefined)
T/C (dose: 6.25 mg/kg/injection, schedule: Q01DX009 (ip), vehicle: Klucel (hydroxypropylcellulose) (HPC)): 89 % of control | T/C (dose: 12.5 mg/kg/injection, schedule: Q01DX009 (ip), vehicle: Klucel (hydroxypropylcellulose) (HPC)): 101 % of control | T/C (dose: 25.0 mg/kg/injection, schedule: Q01DX009 (ip), vehicle: Klucel (hydroxypropylcellulose) (HPC)): 89 % of control

O=c1ccc2c(c1)oc1cccc3c(=O)c4ccccc4c2c13
T/C (dose: 50.0 mg/kg/injection, schedule: Q01DX009 (ip), vehicle: saline with Tween-80): 97 % of control | T/C (dose: 100.0 mg/kg/injection, schedule: Q01DX009 (ip), vehicle: saline with Tween-80): 101 % of control

O=S(=O)(O)CCC(CO)(CO)CO
T/C (dose: 100.0 mg/kg/injection, schedule: Q01DX009 (ip), vehicle: saline): 98 % of control | T/C [4]: 101 % of control | T/C (dose: 200.0 mg/kg/injection, schedule: Q01DX009 (ip), vehicle: saline): 102 % of control | T/C [5]: 101 % of control | T/C (dose: 400.0 mg/kg/injection, schedule: Q01DX009 (ip), vehicle: saline): 101 % of control | T/C [6]: 97 % of control

CN=Cc1ccccc1
T/C (dose: 50.0 mg/kg/injection, schedule: Q04DX003 (ip), vehicle: saline with Tween-80): 91 % of control | T/C (dose: 100.0 mg/kg/injection, schedule: Q04DX003 (ip), vehicle: saline with Tween-80): 94 % of control

Nc1cc(C(=O)Nc2ccc(C3=NCCCN3)cc2)ccc1C(=O)Nc1ccc(C2=NCCCN2)cc1
T/C (dose: 7.5 mg/kg/injection, schedule: Q01DX Z (oral), vehicle: saline): 97 % of control | T/C (dose: 15.0 mg/kg/injection, schedule: Q01DX Z (ip), vehicle: saline): 93 % of control | T/C (dose: 15.0 mg/kg/injection, schedule: Q01DX Z (oral), vehicle: saline): 96 % of control | T/C (dose: 30.0 mg/kg/injection, schedule: Q01DX Z (oral), vehicle: saline): 97 % of control | T/C (dose: 60.0 mg/kg/injection, schedule: Q01DX Z (oral), vehicle: saline): 103 % of control

CSc1nnnc2ccccc12
T/C (dose: 37.5 mg/kg/injection, schedule: Q04DX002 (ip), vehicle: saline with Tween-80): 113 % of control | T/C (dose: 75.0 mg/kg/injection, schedule: Q04DX002 (ip), vehicle: saline with Tween-80): 92 % of control

COC1=NS(=O)(=O)N=C(C)O1
T/C [7]: 91 % of control | T/C [8]: 102 % of control | T/C [9]: 93 % of control

CC(=O)Nc1c(C)cc(C)cc1C
T/C [10]: 105 % of control | T/C [11]: 106 % of control | T/C [7]: 96 % of control | T/C [12]: 103 % of control | T/C [8]: 102 % of control | T/C (dose: 400.0 mg/kg/injection, schedule: Q01DX009 (ip), vehicle: Klucel (hydroxypropylcellulose) (HPC)): 103 % of control | T/C [9]: 104 % of control

CN(C)c1ccc(C=Nc2ccc(/C=C3\C=Cc4ccccc43)cc2)cc1
T/C [13]: 91 % of control | T/C [1]: 93 % of control | T/C [2]: 96 % of control | T/C [3]: 96 % of control

O=c1[nH]c2ccc(Cl)cc2c2nc3ccccc3n12
T/C [10]: 107 % of control | T/C [11]: 101 % of control | T/C [12]: 92 % of control

C=CC(C)CCCC(C)C (centres undefined)
T/C [4]: 91 % of control | T/C [5]: 97 % of control | T/C [6]: 91 % of control

CC1=CC(C)=Nc2ccc(Cl)cc2N1
T/C (dose: 100.0 mg/kg/injection, schedule: Q04DX003 (ip), vehicle: acetone): 97 % of control | T/C (dose: 200.0 mg/kg/injection, schedule: Q04DX003 (ip), vehicle: acetone): 101 % of control | T/C (dose: 400.0 mg/kg/injection, schedule: Q04DX003 (ip), vehicle: acetone): 92 % of control

CNC(=O)Oc1ccc2c(C)cc(=O)oc2c1
T/C (dose: 100.0 mg/kg/injection, schedule: Q04DX002 (ip), vehicle: saline): 94 % of control | T/C (dose: 200.0 mg/kg/injection, schedule: Q04DX002 (ip), vehicle: saline): 105 % of control

CC(NC(=O)c1ccc2ccccc2n1)C(=O)O (centres undefined)
T/C [1]: 92 % of control | T/C [2]: 87 % of control | T/C [3]: 89 % of control

CC(=O)OCC1OC(n2cc(C)c(=O)[nH]c2=O)C(Nc2ccc([N+](=O)[O-])cc2[N+](=O)[O-])C(OC(C)=O)C1OC(C)=O (centres undefined)
T/C [13]: 97 % of control | T/C [1]: 94 % of control | T/C [2]: 94 % of control | T/C [3]: 89 % of control

CCCC(C(=O)OCCN1CCCC12CCCCC2)C1CCCC1 (centres undefined)
T/C (dose: 13.0 mg/kg/injection, schedule: Q01DX Z (ip), vehicle: methylcellulose (MC)): 92 % of control | T/C (dose: 20.0 mg/kg/injection, schedule: Q01DX Z (ip), vehicle: methylcellulose (MC)): 91 % of control | T/C (dose: 30.0 mg/kg/injection, schedule: Q01DX Z (ip), vehicle: methylcellulose (MC)): 88 % of control

O=c1oc(-c2ccccc2)c(-c2ccccc2)c(-c2ccccc2)c1-c1ccccc1
T/C (dose: 100.0 mg/kg/injection, schedule: Q01DX001 (ip), vehicle: saline with Tween-80): 103 % of control | T/C (dose: 200.0 mg/kg/injection, schedule: Q01DX001 (ip), vehicle: saline with Tween-80): 91 % of control | T/C (dose: 400.0 mg/kg/injection, schedule: Q01DX001 (ip), vehicle: saline with Tween-80): 91 % of control
